Measurements reported in US7208146B2, “Methods of treating lymphoma and leukemia” (Genitope Corporation, priority 1996, dated 2007).

System: parental BW5147.G.1.4 cells
Assay: MTX sensitivity (growth cut off) of the parental cell line
Assay type: cell-based
Description: The parental (i e., non-transfected) BW5147.G.1.4 cells barely grow in the presence of 10 nM MTX. By visual inspection 3 to 5 days after plating, greater than about 98 percent of the parental BW5147.G.1.4 cells are killed when 1×10^4 cells are placed in 2 ml of medium containing 20 nM MTX in the well of a 24 well plate (this level of MTX is referred to as the growth cut off for the parental BW5147.G.1.4 cell line). At 30 nM MTX, colonies of BW5147.G.1.4 cells are seen at a frequency of less than 10^−7.
The transfected and selected cells (“selectants”) are plated in a range of MTX concentrations ranging from 10 to 100 nM; the cells are plated at a density of 1 to 5×10^4 cells per well in a 24 well plate (Costar); the selectants are plated at the same density of cells as was used to determine the level of MTX at which > about 98% of the parental cells were killed. This is done because MTX irreversibly binds to DHFR so that the number of cells present in a given volume effects the concentration of MTX required to kill the cells; that is if a higher density of cell is used, a higher concentration of MTX will be required to kill about 98% of the cells [For example when the parental cells are plated at a density of 1×10^4 cells/2 ml medium in the well of a 24 well plate 20 nM MTX is sufficient to kill >98% cells in a 3 to 5 day assay. If the density is increased two-fold (1×10^4 cells in ml medium), 25 nM MTX is required for >98% killing. If 5×10^4 cells are placed in 2 ml of medium in the well of a 24 well plate, 30 nM MTX is required to achieve >98% killing.]
Eight selectant clones having the highest levels of expression of DR were chosen for further manipulation. These eight selectant clones were then tested for their sensitivity to MTX. Each clone was plated at a density of 2×10^4 cells/well in a 24 well plate. Each well contained 1 ml of medium containing RPMI-1640, 10% dialyzed FCS and MTX. The clones were grown in the presence of either 3, 10, 30, 60 or 90 nM MTX. Non-transfected BW5147.G.1.4 cells were also grown in the above range of MTX as a control. Clones which grew in MTX levels at least 2–3 fold higher than that tolerated by the parental BW5147.G.1.4 (typically less than or equal to 10 nM MTX) were selected for further analysis. Four of the selectant clones grew in greater than or equal to 30 nM MTX and were retained; these clones are the primary transfectants chosen for amplification. All 4 clones which grew in >30 nM MTX were analyzed for the ability to express DR molecules on the surface by an ELISA. The cell surface ELISA was performed as follows.

CN(Cc1cnc2nc(N)nc(N)c2n1)c1ccc(C(=O)N[C@@H](CCC(=O)O)C(=O)O)cc1 [MTX, methotrexate]
growth of parental cells in the presence of MTX (10 nM MTX): barely grow
parental BW5147.G.1.4 cells killed (20 nM MTX, 1×10^4 cells in 2 ml medium, well of a 24 well plate, visual inspection 3 to 5 days after plating): greater than 98%
frequency of colonies of BW5147.G.1.4 cells (30 nM MTX): less than 10^−7
MTX concentration sufficient to kill >98% of parental cells (1×10^4 cells/2 ml medium, 24 well plate, 3 to 5 day assay): 20 nM
MTX level tolerated by parental BW5147.G.1.4 (2×10^4 cells/well in 1 ml, 24 well plate, RPMI-1640 with 10% dialyzed FCS): less than or equal to 10 nM
MTX concentration required for >98% killing of parental cells (5×10^4 cells in 2 ml medium, 24 well plate): 30 nM
MTX concentration required for >98% killing of parental cells (density increased two-fold (1×10^4 cells in ml medium)): 25 nM
